As usually defined, the IC50 is the concentration that gives 50% inhibition.

These results are taken from patent US20240002344A1, “COMPOUNDS, COMPOSITIONS AND METHODS FOR HISTONE LYSINE DEMETHYLASE INHIBITION” (FibroGen, Inc., priority 2020, published 2024).

In one test the target is T1, recombinant human KDM5B (Homo sapiens, UniProt Q9UGL1).
T1 sequence (Q9UGL1 374-755 limits assumed): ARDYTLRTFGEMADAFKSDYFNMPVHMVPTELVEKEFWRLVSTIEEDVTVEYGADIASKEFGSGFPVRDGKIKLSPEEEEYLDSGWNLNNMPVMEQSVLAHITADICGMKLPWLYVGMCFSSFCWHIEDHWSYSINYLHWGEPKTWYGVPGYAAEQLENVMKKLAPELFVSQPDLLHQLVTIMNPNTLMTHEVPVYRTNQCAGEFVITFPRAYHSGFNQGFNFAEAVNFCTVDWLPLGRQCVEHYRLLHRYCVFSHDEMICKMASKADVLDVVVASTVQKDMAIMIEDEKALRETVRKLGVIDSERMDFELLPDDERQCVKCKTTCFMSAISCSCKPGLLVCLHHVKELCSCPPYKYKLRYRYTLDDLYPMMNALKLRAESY
The test is described as follows: 14CO2 capture enzymatic assay (decarboxylation of [1-14C] αKG), KDM5B. It counts as biochemical. The note with it: 10 μM [1-14C] αKG, 90 μM non-labeled αKG, 50 μM peptide substrate, 37° C., 1 hour, final 1% DMSO. A digest of the protocol:
(§1)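 Truncated recombinant human KDM5B (H3K4me3 peptide) or KDM4A (H3K9me3 peptide), 50 μM peptide, with 10 μM [1-14C]αKG plus 90 μM unlabeled αKG, 10 μM Fe(SO4), 2 mM ascorbate in pH 7.4 HEPES, 1 h at 37 °C, 1% DMSO. Released 14CO2 trapped on Ba(OH)2 filter; IC50 by non-linear fit.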

Another test concerns the target T2, recombinant human KDM4A (Homo sapiens, UniProt O75164).
T2 construct: made in house
T2 sequence (O75164 1-359 limits assumed): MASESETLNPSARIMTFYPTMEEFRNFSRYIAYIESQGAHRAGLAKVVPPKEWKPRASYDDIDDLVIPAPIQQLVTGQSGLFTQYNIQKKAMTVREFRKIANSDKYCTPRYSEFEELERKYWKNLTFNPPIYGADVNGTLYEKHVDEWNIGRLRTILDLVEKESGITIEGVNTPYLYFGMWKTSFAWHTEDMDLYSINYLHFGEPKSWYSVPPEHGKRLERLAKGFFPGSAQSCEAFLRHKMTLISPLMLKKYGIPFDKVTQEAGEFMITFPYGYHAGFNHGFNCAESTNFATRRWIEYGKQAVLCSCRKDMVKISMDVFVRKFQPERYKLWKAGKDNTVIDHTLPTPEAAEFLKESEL
Kind of test: 14CO2 capture enzymatic assay (decarboxylation of [1-14C] αKG), KDM4A. The class given is biochemical. The note with it: 10 μM [1-14C] αKG, 90 μM non-labeled αKG, 50 μM peptide substrate, 37° C., 1 hour, final 1% DMSO. A digest of the protocol: as §1

`N#Cc1cc(Cc2c(Cl)cc(C(F)(F)F)cc2Cl)nc(C(=O)CCC(=O)O)c1O` [Example 145, 4-[4-Cyano-6-(2,6-dichloro-4-trifluoromethyl-benzyl)-3-hydroxy-pyridin-2-yl]-4-oxo-butyric acid]: the values for the half-maximal inhibitory concentration (IC50) at recombinant human KDM5B and at recombinant human KDM4A were 0.36 µM and over 40 µM, respectively.

In the case of `COc1ccccc1-c1cc(C#N)c(O)c(C(=O)CCC(=O)O)n1` [Example 14, 4-[4-Cyano-3-hydroxy-6-(2-methoxy-phenyl)-pyridin-2-yl]-4-oxo-butyric acid], the IC50 is 0.47 µM on recombinant human KDM5B and over 40 µM on recombinant human KDM4A.

In the case of `Cc1ccc(-c2cc(C#N)c(O)c(C(=O)CCC(=O)O)n2)c2ccccc12` [Example 113, 4-[4-Cyano-3-hydroxy-6-(4-methyl-naphthalen-1-yl)-pyridin-2-yl]-4-oxo-butyric acid], the half-maximal inhibitory concentration (IC50) at recombinant human KDM5B was 0.23 µM; on recombinant human KDM4A, over 40 µM.

For the molecule `N#Cc1cc(Cc2c(Cl)cc(Cl)cc2Cl)nc(C(=O)CCC(=O)O)c1O` [Example 144, 4-[4-Cyano-3-hydroxy-6-(2,4,6-trichloro-benzyl)-pyridin-2-yl]-4-oxo-butyric acid], the IC50 on recombinant human KDM5B came to 0.18 µM; on recombinant human KDM4A, 28 µM.

As for `COc1cccc(-c2cc(C#N)c(O)c(C(=O)CCC(=O)O)n2)c1Cl` [Example 114, 4-[6-(2-Chloro-3-methoxy-phenyl)-4-cyano-3-hydroxy-pyridin-2-yl]-4-oxo-butyric acid], the IC50 on recombinant human KDM5B turned out to be 0.14 µM; at recombinant human KDM4A it was 10 µM.

For the molecule `N#Cc1cc(-c2ccc3ccccc3c2)nc(C(=O)CCC(=O)O)c1O` [Example 77, 4-(4-Cyano-3-hydroxy-6-naphthalen-2-yl-pyridin-2-yl)-4-oxo-butyric acid], the IC50 on recombinant human KDM5B is 0.04 µM; on recombinant human KDM4A, 12 µM.

For the molecule `N#Cc1cc(Cc2ccccc2F)nc(C(=O)CCC(=O)O)c1O` [Example 43, 4-[4-Cyano-6-(2-fluoro-benzyl)-3-hydroxy-pyridin-2-yl]-4-oxo-butyric acid], the results for the IC50 at recombinant human KDM5B and at recombinant human KDM4A were 0.15 µM and 37 µM, respectively.

On to `Cc1cc(Cl)ccc1-c1cc(C#N)c(O)c(C(=O)CCC(=O)O)n1` [Example 90, 4-[6-(4-Chloro-2-methyl-phenyl)-4-cyano-3-hydroxy-pyridin-2-yl]-4-oxo-butyric acid], for which the IC50 at recombinant human KDM5B is 0.25 µM; on recombinant human KDM4A, over 40 µM.

`N#Cc1cc(NC(=O)c2ccccc2)nc(C(=O)CCC(=O)O)c1O` [Example 158, 4-(6-Benzoylamino-4-cyano-3-hydroxy-pyridin-2-yl)-4-oxo-butyric acid]: the 50% inhibitory concentration (IC50) was 0.08 µM at recombinant human KDM5B and over 40 µM at recombinant human KDM4A.

Regarding `N#Cc1cc(-c2ccc(Cl)cc2)nc(C(=O)CCC(=O)O)c1O` [Example 22, 4-[6-(4-Chloro-phenyl)-4-cyano-3-hydroxy-pyridin-2-yl]-4-oxo-butyric acid], the results for the IC50 at recombinant human KDM5B and on recombinant human KDM4A were 0.18 µM and at least 40 µM, respectively.

As to `N#Cc1cc(Cc2c(Cl)cccc2Cl)cc(C(=O)CCC(=O)O)c1O` [Example 121, 4-[3-Cyano-5-(2,6-dichloro-benzyl)-2-hydroxy-phenyl]-4-oxo-butyric acid], the IC50 at recombinant human KDM5B is 0.08 µM; on recombinant human KDM4A it was over 40 µM.

With `N#Cc1cc(-c2cccc3ccccc23)nc(C(=O)CCC(=O)O)c1O` [Example 68, 4-(4-Cyano-3-hydroxy-6-naphthalen-1-yl-pyridin-2-yl)-4-oxo-butyric acid], the IC50 was 0.28 µM on recombinant human KDM5B and over 40 µM at recombinant human KDM4A.

Turning to `Cc1ccc(C)c(-c2cc(C#N)c(O)c(C(=O)CCC(=O)O)n2)c1` [Example 94, 4-[4-Cyano-6-(2,5-dimethyl-phenyl)-3-hydroxy-pyridin-2-yl]-4-oxo-butyric acid], the concentration for half-maximal inhibition (IC50) was 0.27 µM on recombinant human KDM5B and over 40 µM on recombinant human KDM4A.

Take `N#Cc1cc(-c2cccc(F)c2)nc(C(=O)CCC(=O)O)c1O` [Example 20, 4-[4-Cyano-6-(3-fluoro-phenyl)-3-hydroxy-pyridin-2-yl]-4-oxo-butyric acid]: the IC50 at recombinant human KDM5B is 0.17 µM; at recombinant human KDM4A, over 40 µM.

On to `N#Cc1cc(-c2ccc(OC(F)(F)F)cc2)nc(C(=O)CCC(=O)O)c1O` [Example 67, 4-[4-Cyano-3-hydroxy-6-(4-trifluoromethoxy-phenyl)-pyridin-2-yl]-4-oxo-butyric acid], for which the IC50 was 0.24 µM on recombinant human KDM5B and over 40 µM on recombinant human KDM4A.

`N#Cc1cc(-c2cccc(Cl)c2)cc(C(=O)CCC(=O)O)c1O` [Example 120, 4-(3′-Chloro-5-cyano-4-hydroxy-biphenyl-3-yl)-4-oxo-butyric acid]: the half-inhibitory concentration (IC50) is 0.15 µM on recombinant human KDM5B and over 40 µM on recombinant human KDM4A.

Consider `Cc1cccc(F)c1-c1cc(C#N)c(O)c(C(=O)CCC(=O)O)n1` [Example 88, 4-[4-Cyano-6-(2-fluoro-6-methyl-phenyl)-3-hydroxy-pyridin-2-yl]-4-oxo-butyric acid], for which the IC50 was 0.71 µM at recombinant human KDM5B and over 40 µM at recombinant human KDM4A.

As for `Cc1cc(Cl)cc(C)c1Cc1cc(C#N)c(O)c(C(=O)CCC(=O)O)n1` [Example 152, 4-[4-Cyano-6-(4-chloro-2,6-dimethyl-benzyl)-3-hydroxy-pyridin-2-yl]-4-oxo-butyric acid], the concentration for half-maximal inhibition (IC50) on recombinant human KDM5B came to 0.45 µM; on recombinant human KDM4A it was 9.7 µM.

Take `N#Cc1cc(Cc2c(Cl)cc(OC(F)(F)F)cc2Cl)nc(C(=O)CCC(=O)O)c1O` [Example 143, 4-[4-Cyano-6-(2,6-dichloro-4-trifluoromethoxy-benzyl)-3-hydroxy-pyridin-2-yl]-4-oxo-butyric acid]: the IC50 on recombinant human KDM5B was 0.23 µM; on recombinant human KDM4A, over 40 µM.

For the molecule `N#Cc1cc(-c2ccc(F)cc2)nc(C(=O)CCC(=O)O)c1O` [Example 19, 4-[4-Cyano-6-(4-fluoro-phenyl)-3-hydroxy-pyridin-2-yl]-4-oxo-butyric acid], the figures for the concentration for half-maximal inhibition (IC50) on recombinant human KDM5B and at recombinant human KDM4A were 0.23 µM and over 40 µM, respectively.

With `N#Cc1cc(-c2ccccc2F)nc(C(=O)CCC(=O)O)c1O` [Example 69, 4-[4-Cyano-6-(2-fluoro-phenyl)-3-hydroxy-pyridin-2-yl]-4-oxo-butyric acid], the figures for the concentration for half-maximal inhibition (IC50) at recombinant human KDM5B and on recombinant human KDM4A were 0.15 µM and over 40 µM, respectively.

Regarding `Cc1ccc(Oc2cc(C#N)c(O)c(C(=O)CCC(=O)O)c2)cc1` [Example 139, 4-(3-Cyano-2-hydroxy-5-p-tolyloxy-phenyl)-4-oxo-butyric acid], the IC50 at recombinant human KDM5B was 0.56 µM; at recombinant human KDM4A, over 40 µM.

As for `Cc1ccccc1-c1cc(C#N)c(O)c(C(=O)CCC(=O)O)n1` [Example 71, 4-(4-Cyano-3-hydroxy-6-o-tolyl-pyridin-2-yl)-4-oxo-butyric acid], the half-inhibitory concentration (IC50) is 0.31 µM on recombinant human KDM5B and over 40 µM at recombinant human KDM4A.

Turning to `N#Cc1cc(F)ccc1-c1cc(C#N)c(O)c(C(=O)CCC(=O)O)n1` [Example 87, 4-[4-Cyano-6-(2-cyano-4-fluoro-phenyl)-3-hydroxy-pyridin-2-yl]-4-oxo-butyric acid], the IC50 on recombinant human KDM5B is 0.28 µM; at recombinant human KDM4A, over 40 µM.

On to `N#Cc1cc(Oc2ccc(F)cc2)nc(C(=O)CCC(=O)O)c1O` [Example 79, 4-[4-Cyano-6-(4-fluoro-phenoxy)-3-hydroxy-pyridin-2-yl]-4-oxo-butyric acid], for which the values for the concentration for half-maximal inhibition (IC50) on recombinant human KDM5B and on recombinant human KDM4A were 0.23 µM and over 40 µM, respectively.

Turning to `N#Cc1cc(-c2ccc(Cl)cc2)cc(C(=O)CCC(=O)O)c1O` [Example 118, 4-(4′-Chloro-5-cyano-4-hydroxy-biphenyl-3-yl)-4-oxo-butyric acid], the concentration for half-maximal inhibition (IC50) is 0.16 µM on recombinant human KDM5B and over 40 µM on recombinant human KDM4A.

As to `N#Cc1cc(Cc2cccc(F)c2)nc(C(=O)CCC(=O)O)c1O` [Example 42, 4-[4-Cyano-6-(3-fluoro-benzyl)-3-hydroxy-pyridin-2-yl]-4-oxo-butyric acid], the 50% inhibitory concentration (IC50) at recombinant human KDM5B turned out to be 0.21 µM; on recombinant human KDM4A it was 32 µM.

Consider `N#Cc1cccc(Cc2cc(C#N)c(O)c(C(=O)CCC(=O)O)n2)c1` [Example 45, 4-[4-Cyano-6-(3-cyano-benzyl)-3-hydroxy-pyridin-2-yl]-4-oxo-butyric acid], for which the IC50 at recombinant human KDM5B was 0.54 µM; on recombinant human KDM4A, over 40 µM.

Regarding `COc1cccc(C(F)(F)F)c1Cc1cc(C#N)c(O)c(C(=O)CCC(=O)O)n1` [Example 61, 4-[4-Cyano-3-hydroxy-6-(2-methoxy-6-trifluoromethyl-benzyl)-pyridin-2-yl]-4-oxo-butyric acid], the half-maximal inhibitory concentration (IC50) on recombinant human KDM5B is 0.57 µM; on recombinant human KDM4A it was over 40 µM.

`Cc1cccc(C)c1C(=O)N(C)c1cc(C#N)c(O)c(C(=O)CCC(=O)O)n1` [Example 130, 4-{4-Cyano-6-[(2,6-dimethyl-benzoyl)-N-methyl-amino]-3-hydroxy-pyridin-2-yl}-4-oxo-butyric acid]: the half-maximal inhibitory concentration (IC50) on recombinant human KDM5B was 3.2 µM; at recombinant human KDM4A, over 40 µM.
